Tests used:
[1] = tested on: rats; test: EEG/EMG sleep-wake analysis, single administration compared to zolpidem; assay type: in vivo, rat
[2] = in vivo; details: male, Crl:CD(SD), rat, po, no-observed-adverse-effect-level (NOAEL)
[3] = In vivo renal clearance in humans; design: species or system human; details: for CL renal: male, human, urine
Method: Four healthy male subjects were administered each dose. Table 25 below provides the results in the form of the mean renal clearance, mean total amount excreted unchanged ad Compound (1D), and mean percentage dose excreted unchanged.

[4] = tested on: rat liver microsomes; test: In vitro metabolic stability, rat liver microsomes; assay type: in vitro ADME; details: 2 μM, % remaining after 30 minutes at 37° C.
Method: The comparative in vitro metabolic stabilities of Compounds (1F), […], and W-212393 were determined upon exposure to human liver microsomes or rat liver microsomes according to a procedure disclosed in, e.g., Example 14 of U.S. Pat. No. 9,290,488, which is hereby incorporated by reference in its entirety. Liver microsomes from Crj;CD rats or humans were incubated with 2 μM of each tested compound; thereafter, the supernatant was analyzed by HPLC-MS for the concentration of the tested compound present. Human liver microsomes, pooled, 20 mg/mL, were obtained from […] #H0610). […] Alternatively and if desired, rat liver microsomes can be obtained commercially from, e.g., XenoTech (Sprague-Dawley rat liver microsomes, pooled, 20 mg/mL, cat #R1000). β-NADPH (β-nicotinamide adenine dinucleotide 2'-phosphate reduced tetrasodium salt hydrate) was obtained from Oriental Yeast Co., Ltd. (Tokyo, Japan). Each tested compound, present at an initial concentration of 2 μM, was incubated at 37° C. in the presence of 0.5 mg/mL of either human microsomes or rat microsomes in suspension in 50 mM Tris-HCl buffer (7.4 pH), 150 mM KCl, 10 mM MgCl2, and 1 mM β-NADPH. Incubation was initiated upon the addition of a 100-fold concentrated solution of the tested compound to one of the microsome preparations. Incubation was terminated by addition of a two-fold volume of a 1/1 mixture of acetonitrile/methanol after either 0 minutes or 30 minutes of incubation at 37° C. Thereafter, proteins and other macromolecules from the microsome preparation were removed by centrifugation. All incubations were conducted in duplicate. […] The HPLC system consisted of a Waters 2795 separations module (Waters Corp., Milford, Mass.) equipped with an inline degasser, temperature controlled auto-sampler, and column oven. The analytical column was a Waters […], 2.1 mm×20 mm column. The mass analyzer was a Waters ZQ, single quadrupole mass spectrometer equipped with an electrospray ionization source operating in the positive ionization mode and utilizing a stainless steel spray capillary. […]

[5] = in vivo; details: male, Crl, CD(SD), rat, brain homogenate and plasma, iv, 0.5 mg/kg
[6] = tested on: rats; test: In vivo functional observational battery (FOB); details: for Behavior: 1 mg/kg
[7] = In vivo functional observational battery (FOB); details: male, Crl:CD(SD), rat, in vivo, po
[8] = 3 mg/kg, 0.5 h after administration
[9] = 3 mg/kg, 1 h after administration
[10] = 3 mg/kg, 2 h after administration
[11] = 3 mg/kg, 4 h after administration
[12] = 3 mg/kg, 6 h after administration
[13] = 300 mg/kg, 0.5 h after administration
[14] = 300 mg/kg, 1 h after administration
[15] = 300 mg/kg, 2 h after administration
[16] = 300 mg/kg, 4 h after administration
[17] = 300 mg/kg, 6 h after administration

Question: Which “effect on percentage of time spent in REM sleep” value ([1]; 10 mg/kg oral (FIG. 13B)) does the source give for O=C(O)c1nc2ccccc2n([C@H]2C[C@H]3CCC[C@@H](C2)N3C2CC3CCCC(C3)C2)c1=O (stereo partly shown) [Compound (1D)] here?
Answer: no significant effects

Question: And the “percentage of time spent in wakefulness versus vehicle” value ([1]; 10 mg/kg oral, 1 hour blocks at 2, 5, and 8 hours after dosing (FIG. 13A))?
Answer: lower

Question: What about the “percentage amounts of wakefulness, REM sleep, and NREM sleep” value ([1]; 10 mg/kg oral, 3 hour blocks (FIGS. 14A-14C)) of the same compound?
Answer: no significant changes

Question: What about the “percentage of time spent in NREM sleep versus vehicle” value ([1]; 10 mg/kg oral, at 2, 5, and 8 hours after dosing (FIG. 13C)) of the same compound?
Answer: higher

Question: And the “percentage of time spent in wakefulness versus vehicle” value ([1]; 10 mg/kg oral, at 6 and 15 hours after dosing (FIG. 13A))?
Answer: significantly increased

Question: And the “percentage of time spent in NREM sleep versus vehicle” value ([1]; 10 mg/kg oral, at 6 and 15 hours after dosing (FIG. 13C))?
Answer: significantly decreased

Question: What about the “effect on percentage of time spent in REM sleep” value ([1]; 100 mg/kg oral (FIG. 15B, 16B)) of the same compound?
Answer: no significant effects

Question: What about the “percentage amount of NREM sleep versus vehicle” value ([1]; 100 mg/kg oral, 3 hour blocks 0-3, 3-6, 6-9, and 15-18 hours (FIG. 16C)) of the same compound?
Answer: significant decreases

Question: What about the “percentage amount of wakefulness versus vehicle” value ([1]; 100 mg/kg oral, 3 hour blocks 0-3, 3-6, and 15-18 hours (FIG. 16A)) of the same compound?
Answer: significant increases

Question: And the “percentage of time spent in NREM sleep versus vehicle” value ([1]; 100 mg/kg oral, at 3, 4, 5, 7, 17 and 18 hours after dosing (FIG. 15C))?
Answer: significantly increased

Question: What about the “percentage of time spent in wakefulness versus vehicle” value ([1]; 100 mg/kg oral, at 3, 5 and 17 hours after dosing (FIG. 15A)) of the same compound?
Answer: significantly decreased

Question: And the overall sleep effect ([1]; single 10 mg/kg oral dose)?
Answer: minor sleep-enhancing effects

Question: What about the overall sleep effect ([1]; single 100 mg/kg oral dose) of the same compound?
Answer: significant sleep-enhancing effects

Question: What about the NOAEL [2] of the same compound?
Answer: 600 mg/kg

Question: And the “absorption from the gastrointestinal tract” value ([3]; 3 mg oral dose, aqueous suspension)?
Answer: essentially completely absorbed

Question: And the “Mean % Dose Excreted Unchanged” value ([3]; 3.0 mg single oral dose)?
Answer: 89%

Question: What about the “Mean Total Amount Excreted Unchanged” value ([3]; 3.0 mg single oral dose) of the same compound?
Answer: 2.66 mg

Question: And the “Mean % Dose Excreted Unchanged” value ([3]; 10 mg single oral dose)?
Answer: 70%

Question: And the “Mean Total Amount Excreted Unchanged” value ([3]; 10 mg single oral dose)?
Answer: 6.95 mg

Question: What about the “Mean % Dose Excreted Unchanged” value ([3]; 30 mg single oral dose) of the same compound?
Answer: 28%

Question: And the “Mean Total Amount Excreted Unchanged” value ([3]; 30 mg single oral dose)?
Answer: 8.37 mg

Question: And the renal elimination mechanism ([3]; in addition to glomerular filtration)?
Answer: active renal tubular secretion

Question: And the CL renal ([3]; 3.0 mg single oral dose)?
Answer: 275 mL/min

Question: What about the CL renal ([3]; 10 mg single oral dose) of the same compound?
Answer: 266 mL/min

Question: What about the CL renal ([3]; 30 mg single oral dose) of the same compound?
Answer: 270 mL/min

Question: And the “excretion in human urine” value ([3]; single oral doses 3, 10, 30 mg)?
Answer: excreted largely unchanged

Question: With CNC(=O)Cn1c(=O)n(C2CCN([C@@H]3Cc4cccc5cccc3c45)CC2)c2ccccc21 [Compound W-212393] as the compound, how does the “brain penetration relative to average of Compound (1C)” value (0.5/0.033) read?
Answer: at least 15 times

Question: And the “brain penetration relative to maximum value of Compound (1C)” value (0.5/0.040)?
Answer: at least 13 times

Question: What about the “Rat Metabolic Stability (%)” value [4] of the same compound?
Answer: 58.4%

Question: What about the Kp at 0.5 h [5] of the same compound?
Answer: 0.5

Question: And the Behavior ([6]; 0.5 h after administration)?
Answer: N

Question: What about the Behavior ([6]; 1 h after administration) of the same compound?
Answer: N

Question: What about the Behavior ([6]; 2 h after administration) of the same compound?
Answer: N

Question: And the Behavior ([6]; 4 h after administration)?
Answer: N

Question: And the Behavior ([6]; 6 h after administration)?
Answer: N

Question: And the Biting behavior [6, 8]?
Answer: N

Question: And the Hvpoactivity [6, 8]?
Answer: N

Question: And the Jumping [6, 8]?
Answer: N

Question: And the Biting behavior [6, 9]?
Answer: 1 of 6

Question: What about the Hvpoactivity [6, 9] of the same compound?
Answer: 6 of 6

Question: And the Jumping [6, 9]?
Answer: 3 of 6

Question: And the Biting behavior [6, 10]?
Answer: N

Question: And the Hvpoactivity [6, 10]?
Answer: N

Question: What about the Jumping [6, 10] of the same compound?
Answer: 2 of 6

Question: And the Biting behavior [6, 11]?
Answer: N

Question: What about the Hvpoactivity [6, 11] of the same compound?
Answer: N

Question: And the Jumping [6, 11]?
Answer: N

Question: And the Biting behavior [6, 12]?
Answer: N

Question: And the Hvpoactivity [6, 12]?
Answer: N

Question: What about the Jumping [6, 12] of the same compound?
Answer: N

Question: And the “Abdominal position/side lying position” value [6, 13]?
Answer: 6 of 6

Question: What about the Biting behavior [6, 13] of the same compound?
Answer: 3 of 6

Question: And the Decreased muscle tone [6, 13]?
Answer: 6 of 6

Question: And the Jumping [6, 13]?
Answer: 2 of 6

Question: And the “Loss of auricular reflex/righting reflex” value [6, 13]?
Answer: 6 of 6

Question: What about the “Loss of flexed or extension reflex” value [6, 13] of the same compound?
Answer: 6 of 6

Question: And the “Loss of pain reaction” value [6, 13]?
Answer: 6 of 6

Question: What about the Respiratory irregularity [6, 13] of the same compound?
Answer: 6 of 6

Question: What about the “Abdominal position/side lying position” value [6, 14] of the same compound?
Answer: 6 of 6

Question: What about the Biting behavior [6, 14] of the same compound?
Answer: N

Question: What about the Decreased muscle tone [6, 14] of the same compound?
Answer: 6 of 6

Question: And the Jumping [6, 14]?
Answer: N

Question: And the “Loss of auricular reflex/righting reflex” value [6, 14]?
Answer: 6 of 6

Question: What about the “Loss of flexed or extension reflex” value [6, 14] of the same compound?
Answer: 6 of 6

Question: And the “Loss of pain reaction” value [6, 14]?
Answer: 6 of 6

Question: And the Respiratory irregularity [6, 14]?
Answer: 6 of 6

Question: And the “Abdominal position/side lying position” value [6, 15]?
Answer: 6 of 6

Question: What about the Biting behavior [6, 15] of the same compound?
Answer: N

Question: And the Decreased muscle tone [6, 15]?
Answer: 6 of 6

Question: And the Jumping [6, 15]?
Answer: N

Question: What about the “Loss of auricular reflex/righting reflex” value [6, 15] of the same compound?
Answer: 6 of 6

Question: And the “Loss of flexed or extension reflex” value [6, 15]?
Answer: 6 of 6

Question: And the “Loss of pain reaction” value [6, 15]?
Answer: 6 of 6

Question: And the Respiratory irregularity [6, 15]?
Answer: 6 of 6

Question: What about the “Abdominal position/side lying position” value [6, 16] of the same compound?
Answer: 6 of 6

Question: And the Biting behavior [6, 16]?
Answer: N

Question: And the Decreased muscle tone [6, 16]?
Answer: 6 of 6

Question: And the Jumping [6, 16]?
Answer: N

Question: What about the “Loss of auricular reflex/righting reflex” value [6, 16] of the same compound?
Answer: 6 of 6

Question: What about the “Loss of flexed or extension reflex” value [6, 16] of the same compound?
Answer: 6 of 6

Question: What about the “Loss of pain reaction” value [6, 16] of the same compound?
Answer: 6 of 6

Question: What about the Respiratory irregularity [6, 16] of the same compound?
Answer: 6 of 6

Question: What about the “Abdominal position/side lying position” value [6, 17] of the same compound?
Answer: 6 of 6

Question: What about the Biting behavior [6, 17] of the same compound?
Answer: N

Question: What about the Decreased muscle tone [6, 17] of the same compound?
Answer: 6 of 6

Question: And the Jumping [6, 17]?
Answer: N

Question: What about the “Loss of auricular reflex/righting reflex” value [6, 17] of the same compound?
Answer: 6 of 6

Question: What about the “Loss of flexed or extension reflex” value [6, 17] of the same compound?
Answer: 6 of 6

Question: What about the “Loss of pain reaction” value [6, 17] of the same compound?
Answer: 6 of 6

Question: What about the Respiratory irregularity [6, 17] of the same compound?
Answer: 6 of 6

Question: What about the NOAEL [7] of the same compound?
Answer: 1 mg/kg

Source: patent publication US10974081B2, “Treatment and prevention of sleep disorders” (Purdue Pharma L.P., priority 2016, dated 2021)
